Source: patent US20260209220A1, “SUBSTITUTED TETRAHYDROPYRROLO-PYRIDINONE COMPOUNDS AND THEIR USE IN TREATING MEDICAL CONDITIONS” (Karuna Therapeutics, Inc., priority 2022, published 2026)

Assays:
hM4 receptors = molecular target: T1, hM4 receptors (Homo sapiens, UniProt P08173); assay: Human M4 PAM PERK assay (CHO cells, TR-FRET, with EC20 acetylcholine); assay type: cell-based
T1 construct: expressed in transfected cells; host or cells: CHO cells
T1 sequence (P08173 1-479): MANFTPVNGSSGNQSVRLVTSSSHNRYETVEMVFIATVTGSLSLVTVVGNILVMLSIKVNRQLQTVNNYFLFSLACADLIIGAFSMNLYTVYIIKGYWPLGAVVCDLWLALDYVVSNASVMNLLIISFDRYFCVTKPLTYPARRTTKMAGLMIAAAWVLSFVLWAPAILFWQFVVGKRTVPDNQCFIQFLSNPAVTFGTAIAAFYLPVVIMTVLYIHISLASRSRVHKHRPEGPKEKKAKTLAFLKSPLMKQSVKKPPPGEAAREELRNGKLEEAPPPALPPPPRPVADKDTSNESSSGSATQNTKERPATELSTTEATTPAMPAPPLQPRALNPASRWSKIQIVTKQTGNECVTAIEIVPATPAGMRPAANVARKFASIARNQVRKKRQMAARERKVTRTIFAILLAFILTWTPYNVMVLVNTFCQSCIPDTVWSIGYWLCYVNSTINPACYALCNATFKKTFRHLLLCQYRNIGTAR
Procedure: (§1) Chinese hamster ovary (CHO) cells expressing either hM4 or rM4 receptors were frozen in assay ready vials (5×10^6 cells/vial) after bulking-up in culture. The day before an assay, vial(s) were thawed and cells seeded in 384 well white proxiplates at 1000/well for hM4 cells and at 2000/well for rM4 cells, in 10 μL of growth media (Hams/F12 with glutamax and 10% FCS) and incubated overnight at 37° C./5% CO2.
(§2) On the following morning, the growth media was removed by ‘flicking out’ over a bin, patting the inverted plate onto tissue, and then replacing with 10 μL of wash media (Hams/F12 with glutamax and 8 mM HEPES, NB: serum free). Then, the wash media was removed in the same way and replaced with 8 μL/well of the serum free media. Plates were then re-incubated for a further 4 hours at 37° C./5% CO2.
(§3) Compounds for testing were solubilized to 10 mM in DMSO and compound addition plates, consisting of ten-point concentration response curves (CRC) in duplicate points (10 μM top concentration, ½ log dilution series), were prepared by acoustic dispensing and the compound management group.
(§4) After the 4-hour incubation in serum free media, a 4 μL aliquot of the 3×compound solution containing an EC20 of acetylcholine (10 nM final concentration) was added to the cell plate using a 384 well plate to plate transfer. Then, the plate lid was replaced, and the cells incubated for 5 mins at 37° C./5% CO2. Following this final incubation, all cellular processes were stopped by the addition of 4 μL/well of lysis and blocking buffer and plates were incubated for 30 minutes at RT on an orbital shaker (gentle setting). Then, a final addition of 4 μL/well of antibody detection mix, containing both the Europium-Cryptate (donor) and d2 (acceptor) tagged detection components, was added followed by a further 2-hour incubation at RT, and then the plate was read using a TR-FRET (time resolved fluorescence resonance energy transfer) based protocol.

rM4 receptors = molecular target: T2, rM4 receptors (Rattus norvegicus, UniProt P08485); assay: Rat M4 PAM PERK assay (CHO cells, TR-FRET, with EC20 acetylcholine); assay type: cell-based
T2 construct: expressed in transfected cells; host or cells: CHO cells
T2 sequence (P08485 1-478): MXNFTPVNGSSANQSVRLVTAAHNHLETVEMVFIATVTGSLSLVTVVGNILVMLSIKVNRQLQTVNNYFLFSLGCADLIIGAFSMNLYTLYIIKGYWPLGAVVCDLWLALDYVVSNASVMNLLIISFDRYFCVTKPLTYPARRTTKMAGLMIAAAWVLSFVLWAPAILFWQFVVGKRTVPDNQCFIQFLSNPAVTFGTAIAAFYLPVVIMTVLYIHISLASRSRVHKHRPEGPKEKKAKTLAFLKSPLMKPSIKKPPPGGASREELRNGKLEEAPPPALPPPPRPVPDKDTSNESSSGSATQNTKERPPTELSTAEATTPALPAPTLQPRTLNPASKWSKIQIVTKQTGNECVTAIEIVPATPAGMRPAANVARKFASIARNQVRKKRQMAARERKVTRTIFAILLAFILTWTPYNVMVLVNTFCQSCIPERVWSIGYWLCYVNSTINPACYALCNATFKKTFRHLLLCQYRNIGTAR
Procedure: as §1, §2, §3, §4

human M4 receptor = molecular target: T3, human M4 receptor (Homo sapiens, UniProt P08173); assay: M4 GTPγS PAM assay (CHO-K1 membranes, 35S-GTP binding, with EC20 acetylcholine); assay type: biochemical; conditions: with EC20 acetylcholine (40 nM)
T3 construct: expressed in transfected cells; host or cells: CHO-K1 cells (membranes)
T3 sequence (P08173 1-479): T1 sequence (P08173 1-479)
Procedure: The M4 GTPγS PAM method was used. Membranes were prepared for GTPgS binding assays from CHO-K1 cells stably expressing human M4 receptor. Briefly, cells were grown in 5-layer cell culture flasks. Cells were washed with 50 mL of PBS and then dissociated with 0.05% trypsin. Dissociated cells were then collected by centrifugation at 650×g for 8 minutes at 4° C. Pellets were washed again in PBS by centrifugation and resuspended in 30 mL of 20 mM HEPES, 10 mM EDTA, pH 7.4. After sitting on ice for 30 min, membranes were collected by centrifugation at 50000×g for 15′ at 4° C., resuspended in 30 mL of 20 mM HEPES, 0.1 mM EDTA, pH 7.4 and collected again by centrifugation. Pellets were then washed twice by centrifugation in 30 mL of 20 mM HEPES, pH 7.4, and stored at −80° C. until the day of the assay. On the day of the assay, pellets were thawed on ice and resuspended in 1 mL of 20 mM HEPES, pH 7.4, 10 mM MgCl2, 100 mM NaCl using dounce homogenization. Membrane protein concentration is determined by BCA protein assay (Promega, Madison, WI) according to Promega guidelines.
On the day of the assay, serial dilutions of test PAM compounds were brought up in assay buffer (20 mM HEPES, 10 mM MgCl2, 100 mM NaCl) at 4X final assay concentration. […] of membrane homogenates (containing […] of membrane protein) were prepared in assay buffer supplemented with GDP at […] final assay concentration (final assay concentration of GDP is 5 μM for M2 and 0.1 μM for M4) and dispensed into 96 well polypropylene, U-bottom Greiner plates. 25 ml of vehicle or test PAM compound at 4× of final assay concentration diluted in the assay buffer were added to membrane and plates are incubated for 10-15 minutes at room temperature with gentle shaking. Then, […] of EC20 acetylcholine in assay buffer at 4× final assay concentration was added to assay plates (EC20 final assay concentrations was 40 nM for human M4).
Plates were then incubated, with shaking, for an additional 10-15 minutes. […] of 0.4 nM 35S-GTP (Perkin Elmer, Waltham, MA) in assay buffer was added to assay mixtures. The binding reaction is left on the shaker for 1 hour at room temperature. Membranes in assay reactions were then transferred to GF/C filter plates (Unifilter, Perkin Elmer) and washed three times using a FilterMate Harvester (Perkin Elmer) with cold assay buffer containing no GDP. Filter plates were then dried at 40° C. overnight followed by the addition of […] of Beta Plate Scintillation liquid. Plates are top and bottom sealed before being read on TopCount scintillation counter (Perkin Elmer, Waltham, MA).

Cc1cc(=O)n(C)c2c1CN(C(=O)CC1CN(c3ccc4c(c3)COC4)C1)C2 [Compound I-16]
EC50 (hM4 receptors): 50 to 200 nM
EC50 (rM4 receptors): 200 to 1000 nM
EC50 (human M4 receptor): 200 to 1000 nM

Cc1cc(=O)n(C)c2c1CN(C(=O)CC1CN(c3cccc(C#N)c3)C1)C2 [Compound I-25]
EC50 (hM4 receptors): 50 to 200 nM
EC50 (rM4 receptors): 200 to 1000 nM
EC50 (human M4 receptor): 200 to 1000 nM

Cc1c2c(n(C)c(=O)c1Cl)CN(C(=O)CC1CN(c3ncns3)C1)C2 [Compound I-80]
EC50 (hM4 receptors): < 50 nM
EC50 (rM4 receptors): 200 to 1000 nM
EC50 (human M4 receptor): 50 to 200 nM

Cc1c2c(n(C)c(=O)c1Cl)CN(C(=O)CC1CN(c3ccc(C(F)(F)F)nc3)C1)C2 [Compound I-78]
EC50 (hM4 receptors): < 50 nM
EC50 (rM4 receptors): 50 to 200 nM
EC50 (human M4 receptor): 50 to 200 nM

COc1cccc(N2CC(CC(=O)N3Cc4c(C)cc(=O)n(C)c4C3)C2)c1 [Compound I-7]
EC50 (hM4 receptors): 200 to 1000 nM
EC50 (rM4 receptors): 50 to 200 nM
EC50 (human M4 receptor): 200 to 1000 nM

Cc1c2c(n(C)c(=O)c1C)CN(C(=O)CC1CN(c3ccc(F)c(OC4CC4)c3)C1)C2 [Compound I-63, 6-(2-(1-(3-cyclopropoxy-4-fluorophenyl)azetidin-3-yl)acetyl)-1,3,4-trimethyl-1,5,6,7-tetrahydro-2H-pyrrolo[3,4-b]pyridin-2-one]
EC50 (hM4 receptors): 200 to 1000 nM
EC50 (rM4 receptors): 200 to 1000 nM
EC50 (human M4 receptor): < 50 nM

Cc1cc(=O)n(C)c2c1CN(C(=O)CC1CN(c3ccc(OC(F)(F)F)cc3)C1)C2 [Compound I-12]
EC50 (hM4 receptors): 200 to 1000 nM
EC50 (rM4 receptors): 200 to 1000 nM
EC50 (human M4 receptor): 50 to 200 nM

Cc1c2c(n(C)c(=O)c1C)CN(C(=O)CC1CN(c3cnc(C4CC4)cn3)C1)C2 [Compound I-58]
EC50 (hM4 receptors): 50 to 200 nM
EC50 (rM4 receptors): 50 to 200 nM
EC50 (human M4 receptor): 50 to 200 nM

Cc1c2c(n(C)c(=O)c1Cl)CN(C(=O)CC1CN(c3ccnc(C(F)(F)F)c3)C1)C2C (stereo not drawn) [Compound I-118, 3-Chloro-1,4,5-trimethyl-6-(2-(1-(2-(trifluoromethyl)pyridin-4-yl)azetidin-3-yl)acetyl)-1,5,6,7-tetrahydro-2H-pyrrolo[3,4-b]pyridin-2-one]
EC50 (hM4 receptors): < 50 nM
EC50 (rM4 receptors): 50 to 200 nM
EC50 (human M4 receptor): < 50 nM

Cc1c2c(n(C)c(=O)c1F)CN(C(=O)CC1CN(c3ccc(C(F)(F)F)cc3)C1)C2 [Compound I-85]
EC50 (hM4 receptors): 50 to 200 nM
EC50 (rM4 receptors): 50 to 200 nM
EC50 (human M4 receptor): < 50 nM

Cn1c2c(c(C(F)(F)F)cc1=O)CN(C(=O)CC1CN(c3cccnc3)C1)C2 [Compound I-91, 1-Methyl-6-(2-(1-(pyridin-3-yl)azetidin-3-yl)acetyl)-4-(trifluoromethyl)-1,5,6,7-tetrahydro-2H-pyrrolo[3,4-b]pyridin-2-one]
EC50 (hM4 receptors): 200 to 1000 nM
EC50 (rM4 receptors): 200 to 1000 nM
EC50 (human M4 receptor): > 1000 nM

Cc1cc(=O)n(C)c2c1CN(C(=O)CC1CN(c3ccc(C4CC4)cc3)C1)C2 [Compound I-19]
EC50 (hM4 receptors): 200 to 1000 nM
EC50 (rM4 receptors): 50 to 200 nM
EC50 (human M4 receptor): 50 to 200 nM

Cc1cc(=O)n(C)c2c1CN(C(=O)CC1CN(c3cnc(C(F)(F)F)nc3)C1)C2 [Compound I-21]
EC50 (hM4 receptors): 200 to 1000 nM
EC50 (rM4 receptors): 50 to 200 nM
EC50 (human M4 receptor): > 1000 nM

Cc1c2c(n(C)c(=O)c1Cl)CN(C(=O)CC1CN(c3ccnc(C(F)(F)F)c3)C1)C2 [Compound I-66, 3-Chloro-1,4-dimethyl-6-(2-(1-(2-(trifluoromethyl)pyridin-4-yl)azetidin-3-yl)acetyl)-1,5,6,7-tetrahydro-2H-pyrrolo[3,4-b]pyridin-2-one]
EC50 (hM4 receptors): < 50 nM
EC50 (rM4 receptors): 50 to 200 nM
EC50 (human M4 receptor): < 50 nM

Cc1cc(=O)n(C)c2c1[C@H](C)N(C(=O)CC1CN(c3ccc(C(F)(F)F)cc3)C1)C2 [Compound I-116, (S)-1,4,5-trimethyl-6-(2-(1-(4-(trifluoromethyl)phenyl)azetidin-3-yl)acetyl)-1,5,6,7-tetrahydro-2H-pyrrolo[3,4-b]pyridin-2-one]
EC50 (hM4 receptors): > 1000 nM
EC50 (rM4 receptors): > 1000 nM
EC50 (human M4 receptor): > 1000 nM

Cc1cc(=O)n(C)c2c1CN(C(=O)CC1CN(c3ccnc(C4CC4)n3)C1)C2 [Compound I-24]
EC50 (hM4 receptors): 50 to 200 nM
EC50 (rM4 receptors): 200 to 1000 nM
EC50 (human M4 receptor): 50 to 200 nM

Cc1c2c(n(C)c(=O)c1C)CN(C(=O)CC1CN(c3ncns3)C1)C2 [Compound I-44]
EC50 (hM4 receptors): < 50 nM
EC50 (rM4 receptors): 200 to 1000 nM
EC50 (human M4 receptor): 50 to 200 nM
